Source: paper PMC7413254 (Nature Communications, 2020)
Like-named read-outs stand apart in the source and are kept apart here.

Assays:
non-expressing oocytes = test: cells; format: cell-based, Xenopus laevis; conditions: Xenopus laevis, total [3H]CQ transport; for inhibition at 500 µM: [test solute] = 0.5 mM; for inhibition at 1000 µM: [test solute] = 1 mM; for inhibition at 2000 µM: [test solute] = 2 mM
Summary of the method: (§1)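 Washed oocytes (ten per treatment) were exposed to label in pH 5.5 ND96 for 1.5 h at 27.5 °C. Buffer was then removed, cells rinsed in ice-cold ND96, lysed in SDS and counted.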

PfCRT^Ecu1110 [1] = target: T1, PfCRT^Ecu1110 (Plasmodium falciparum, UniProt Q9N623, A220S/I356L/K76T/N326D); test: cell-based; format: cell-based; conditions: […]
T1 sequence (Q9N623 whole entry A220S/I356L/K76T/N326D): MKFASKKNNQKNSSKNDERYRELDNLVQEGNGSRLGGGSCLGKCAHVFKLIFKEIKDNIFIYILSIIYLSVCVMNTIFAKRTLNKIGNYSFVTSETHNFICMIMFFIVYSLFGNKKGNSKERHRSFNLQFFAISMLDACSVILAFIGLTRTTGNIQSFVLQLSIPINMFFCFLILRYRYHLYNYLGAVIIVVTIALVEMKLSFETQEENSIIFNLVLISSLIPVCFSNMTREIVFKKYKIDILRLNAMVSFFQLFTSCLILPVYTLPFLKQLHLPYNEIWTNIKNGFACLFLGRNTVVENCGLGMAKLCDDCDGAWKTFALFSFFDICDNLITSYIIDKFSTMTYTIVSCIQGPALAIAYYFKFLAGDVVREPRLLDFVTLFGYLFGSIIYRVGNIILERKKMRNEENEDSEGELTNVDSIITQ
Summary of the method: (§2)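 Transport measured in Xenopus oocytes expressing the transporters, 1.5 h at 27.5 °C in ND96 pH 5.5 unless noted. For trans-stimulation, VF-6 injected in 25 nL ND96 at pH 5.0–7.0 or Na^+-free (choline) buffer; intracellular levels based on ~400 nL oocyte volume. Ten oocytes per treatment, ≥4 experiments.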

PfCRT^3D7 = PfCRT^3D7 (Plasmodium falciparum, UniProt Q8IBZ9); test: cell-based; format: cell-based
Chain of PfCRT^3D7 (Q8IBZ9 59-398): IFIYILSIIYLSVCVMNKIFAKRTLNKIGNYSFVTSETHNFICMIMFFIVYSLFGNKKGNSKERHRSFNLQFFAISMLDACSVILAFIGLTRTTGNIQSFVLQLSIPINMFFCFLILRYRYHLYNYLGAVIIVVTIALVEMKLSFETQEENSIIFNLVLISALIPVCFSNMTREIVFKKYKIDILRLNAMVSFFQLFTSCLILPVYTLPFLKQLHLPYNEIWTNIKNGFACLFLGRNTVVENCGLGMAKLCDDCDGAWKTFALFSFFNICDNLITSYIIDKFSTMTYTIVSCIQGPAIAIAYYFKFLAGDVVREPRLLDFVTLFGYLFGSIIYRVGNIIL
Summary of the method: as §2

PfNT1 = target: T2, PfNT1 (Plasmodium falciparum, UniProt Q8IDM6); test: cell-based; format: cell-based; conditions: for activity at 5000 µM: total [3H]CQ transport
T2 construct: expressed in transfected cells; host or cells: Xenopus laevis oocytes (stage V-VI), cRNA-injected
T2 sequence (Q8IDM6 whole entry): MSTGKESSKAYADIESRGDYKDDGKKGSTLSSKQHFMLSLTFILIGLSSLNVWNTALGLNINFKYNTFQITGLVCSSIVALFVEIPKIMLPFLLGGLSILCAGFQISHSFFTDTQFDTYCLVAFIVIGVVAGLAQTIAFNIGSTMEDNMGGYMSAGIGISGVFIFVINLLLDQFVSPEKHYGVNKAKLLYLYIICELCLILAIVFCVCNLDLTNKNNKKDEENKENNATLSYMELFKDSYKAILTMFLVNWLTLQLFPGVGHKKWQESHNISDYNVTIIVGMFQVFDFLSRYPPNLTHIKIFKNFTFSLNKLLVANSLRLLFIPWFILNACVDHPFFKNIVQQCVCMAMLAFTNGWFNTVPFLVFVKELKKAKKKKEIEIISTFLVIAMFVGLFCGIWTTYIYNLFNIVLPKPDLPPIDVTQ
Summary of the method: as §2

PfCRT^Dd2 = PfCRT^Dd2 (Plasmodium falciparum, UniProt Q9N623, A220S/I356T/K76T/M74I/N326S/N75E/Q271E/R371I); test: cell-based; format: cell-based; conditions: […]; for activity at 45000 µM: [test solute]i = 45 mM (30 mM for some solutes due to solubility)
Chain of PfCRT^Dd2 (Q9N623 whole entry A220S/I356T/K76T/M74I/N326S/N75E/Q271E/R371I): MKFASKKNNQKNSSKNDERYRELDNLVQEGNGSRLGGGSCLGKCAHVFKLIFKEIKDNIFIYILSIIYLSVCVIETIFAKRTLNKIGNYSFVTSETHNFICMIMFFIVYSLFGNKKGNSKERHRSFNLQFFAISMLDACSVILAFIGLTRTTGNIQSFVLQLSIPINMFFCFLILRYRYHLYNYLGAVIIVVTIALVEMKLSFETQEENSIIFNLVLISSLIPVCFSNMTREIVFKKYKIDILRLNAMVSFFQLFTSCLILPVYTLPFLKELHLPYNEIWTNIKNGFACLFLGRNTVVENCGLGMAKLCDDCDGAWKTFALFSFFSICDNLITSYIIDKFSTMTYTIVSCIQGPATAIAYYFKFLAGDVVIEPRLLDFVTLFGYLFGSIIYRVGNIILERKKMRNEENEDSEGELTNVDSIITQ
Summary of the method: as §2

PfCRT^Ecu1110 [2] = target: T1, PfCRT^Ecu1110; test: [3H]CQ uptake into Xenopus oocytes, cis-inhibition by unlabelled solute; format: cell-based; conditions: read-out: PfCRT-mediated [3H]CQ transport, cis-inhibition (% PfCRTEcu1110 control)
Summary of the method: as §1

[3] = Oocyte, mean ± SEM, SEM, read-out: Uptake of [3H]CQ (% PfCRTDd2 control), cis-inhibition, non-expressing oocytes
[4] = non-expressing oocytes, normalised to the oocyte type control, read-out: Uptake of [3H]CQ (% non-expressing oocyte control), cis-inhibition

N[C@@H](Cc1c[nH]c2ccccc12)C(=O)O [L-tryptophan]
inhibition at 500 µM (non-expressing oocytes; [3]): 2.1 ± 0.07% | inhibition at 1000 µM (non-expressing oocytes; [3]): 3.4 ± 0.1% | inhibition at 2000 µM (non-expressing oocytes; [3]): 3.6 ± 0.09% | inhibition at 500 µM (non-expressing oocytes; [4]): 97 ± 3.2% | inhibition at 1000 µM (non-expressing oocytes; [4]): 100 ± 3.6% | inhibition at 2000 µM (non-expressing oocytes; [4]): 100 ± 6.3% | activity at 5000 µM (PfCRT^Ecu1110 [1]; pH 5.5, read-out: PfCRT-mediated [3H]CQ transport, trans-stimulation (% PfCRTEcu1110 control), [test solute]i = 5 mM (intracellular), PfCRTEcu1110 oocytes, normalised to oocyte type control): 97 ± 2.2% | activity at 5000 µM (PfCRT^Ecu1110 [1]; pH 5.5, read-out: Uptake of [3H]CQ (% PfCRTEcu1110 control), trans-stimulation, PfCRTEcu1110 oocytes, [test solute]i = 5 mM, total [3H]CQ transport, normalised to the oocyte type control): 99 ± 3.1% | activity at 45000 µM (PfCRT^Ecu1110 [1]; pH 5.5, read-out: Uptake of [3H]CQ (% PfCRTEcu1110 control), trans-stimulation, PfCRTEcu1110 oocytes, [test solute]i = 45 mM (30 mM for some solutes due to solubility), total [3H]CQ transport, normalised to the oocyte type control): 99 ± 3.5% | activity at 5000 µM (PfCRT^Ecu1110 [1]; read-out: Uptake of [3H]CQ (% PfCRTDd2 control), trans-stimulation, PfCRTEcu1110, total [3H]CQ transport, [test solute]i = 5 mM (intracellular), mean ± SEM, SEM): 35 ± 1.9% | activity at 45000 µM (PfCRT^Ecu1110 [1]; read-out: Uptake of [3H]CQ (% PfCRTDd2 control), trans-stimulation, PfCRTEcu1110, total [3H]CQ transport, [test solute]i = 45 mM (intracellular; 30 mM for some solutes due to solubility), mean ± SEM, SEM): 35 ± 2.1% | activity at 5000 µM (PfCRT^3D7; PfCRT3D7 oocytes, [test solute]i = 5 mM, total [3H]CQ transport, normalised to the oocyte type control, read-out: Uptake of [3H]CQ (% PfCRT3D7 control), trans-stimulation): 100 ± 3.5% | [3H]CQ transport (% PfCRT3D7 control), trans-stimulation, PfCRT3D7 (PfCRT^3D7; SEM): 0.3 ± 0.02 % PfCRT3D7 control | activity at 5000 µM (PfCRT^3D7; [test solute]i = 5 mM (intracellular), PfCRT3D7 oocytes, normalised to oocyte type control, read-out: PfCRT-mediated [3H]CQ transport, trans-stimulation (% PfCRT3D7 control)): 98 ± 4.7% | activity at 45000 µM (PfCRT^3D7; SEM, read-out: Uptake of [3H]CQ (% PfCRTDd2 control), trans-stimulation, PfCRT3D7): 3.4 ± 0.06% | activity at 45000 µM (PfCRT^3D7; read-out: PfCRT-mediated [3H]CQ transport, trans-stimulation (% PfCRT3D7 control)): 99 ± 3.4% | activity at 45000 µM (PfCRT^3D7; read-out: Uptake of [3H]CQ (% PfCRT3D7 control), trans-stimulation): 101 ± 2.5% | activity at 5000 µM (PfCRT^3D7; total [3H]CQ transport, [test solute]i = 5 mM (intracellular), mean ± SEM, SEM, read-out: Uptake of [3H]CQ (% PfCRTDd2 control), trans-stimulation, PfCRT3D7): 3.3 ± 0.06% | activity at 5000 µM (PfNT1; PfNT1 oocytes, [test solute]i = 5 mM, normalised to the oocyte type control, read-out: Uptake of [3H]CQ (% PfNT1 control), trans-stimulation): 101 ± 3.9% | activity at 45000 µM (PfNT1; SEM, read-out: Uptake of [3H]CQ (% PfCRTDd2 control), trans-stimulation, PfNT1): 2.1 ± 0.03% | activity at 45000 µM (PfNT1; read-out: Uptake of [3H]CQ (% PfNT1 control), trans-stimulation): 98 ± 3.2% | activity at 5000 µM (PfNT1; [test solute]i = 5 mM (intracellular), mean ± SEM, SEM, read-out: Uptake of [3H]CQ (% PfCRTDd2 control), trans-stimulation, PfNT1): 2.7 ± 0.05% | activity at 5000 µM (PfCRT^Dd2; pH 5.5, read-out: PfCRT-mediated [3H]CQ transport, trans-stimulation (% PfCRTDd2 control), [test solute]i = 5 mM (intracellular), PfCRTDd2 oocytes, normalised to oocyte type control): 98 ± 1.6% | activity at 5000 µM (PfCRT^Dd2; pH 5.5, read-out: Uptake of [3H]CQ (% PfCRTDd2 control), trans-stimulation, PfCRTDd2, total [3H]CQ transport, [test solute]i = 5 mM (intracellular), mean ± SEM, SEM): 100 ± 2.2% | activity at 5000 µM (PfCRT^Dd2; pH 5.5, read-out: Uptake of [3H]CQ (% PfCRTDd2 control), trans-stimulation, PfCRTDd2 oocytes, [test solute]i = 5 mM, total [3H]CQ transport, normalised to the oocyte type control): 100 ± 2.2% | activity at 45000 µM (PfCRT^Dd2; pH 5.5, read-out: Uptake of [3H]CQ (% PfCRTDd2 control), trans-stimulation, PfCRTDd2 oocytes, total [3H]CQ transport, normalised to the oocyte type control): 101 ± 2.4% | activity at 5000 µM (PfCRT^Dd2; pH 5.5, read-out: [3H]CQ transport (% PfCRTDd2 control), trans-stimulation, PfCRTDd2, trans-stimulation, [test solute]i = 5 mM (injected), PfCRT-mediated component (background subtracted), mean ± SEM, SEM): 98 ± 1.6% | activity at 45000 µM (PfCRT^Dd2; pH 5.5, read-out: [3H]CQ transport (% PfCRTDd2 control), trans-stimulation, PfCRTDd2, trans-stimulation, PfCRT-mediated component (background subtracted), mean ± SEM, SEM): 99 ± 1.9% | inhibition at 500 µM (PfCRT^Ecu1110 [2]): 96 ± 3.7% | inhibition at 1000 µM (PfCRT^Ecu1110 [2]): 95 ± 4.6%
